Source: the supplement of paper PMC13207355
Structures can show the parent of a compound that is named as a salt.

Key:
Details in all cases: exposure time: 72 h
[1] = test system: E28 (patient-derived glioblastoma stem cells of classical subtype); assay: phenotypic distance (Euclidean, principal components) from DMSO controls (arbitrary units); higher = stronger morphological change
[2] = test system: E34 (patient-derived glioblastoma stem cells of proneural subtype); assay: as above
[3] = test system: FT3469 (normal neural stem cell line); assay: as above
[4] = test system: E57 (patient-derived glioblastoma stem cells of mesenchymal subtype); assay: as above
[5] = test system: E13 (patient-derived glioblastoma stem cells of classical subtype); assay: as above
[6] = test system: E31 (patient-derived glioblastoma stem cells of proneural subtype); assay: as above
[7] = test system: E21 (patient-derived glioblastoma stem cells of mesenchymal subtype); assay: as above
[8] = test system: E28; assay: surviving fraction (nuclei count normalised to DMSO); higher = more cells surviving (less toxic)
[9] = test system: E34; assay: as above
[10] = test system: FT3469; assay: as above
[11] = test system: E57; assay: as above
[12] = test system: E13; assay: as above
[13] = test system: E31; assay: as above
[14] = test system: E21; assay: as above
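Throughout, for phenotypic distance (Euclidean, principal components) from DMSO controls: cell Painting imaging in 384-well plates, CellProfiler features reduced to at least 20 principal components, Euclidean distance versus same-plate DMSO vehicle wells (0.1% v/v), median over six images per well.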
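Throughout, for surviving fraction (nuclei count normalised to DMSO): nuclei counted by high-content imaging of Hoechst-stained cells in laminin-coated 384-well plates, relative to 0.1% DMSO vehicle wells, with staurosporine as cell-death control.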

CC(NCCC(c1ccccc1)c1ccccc1)c1ccccc1 (stereo unspecified) [Fendiline hydrochloride]
Details | phenotypic distance | surviving fraction
[1], 4.1 nM | 0.507 | –
[1], 12.3 nM | 0.605 | –
[1], 37 nM | 0.415 | –
[1], 111.1 nM | 0.773 | –
[1], 333.3 nM | 0.762 | –
[1], 1000 nM | 0.645 | –
[1], 3000 nM | 0.861 | –
[2], 4.1 nM | 0.542 | –
[2], 12.3 nM | 0.85 | –
[2], 37 nM | 0.586 | –
[2], 111.1 nM | 0.878 | –
[2], 333.3 nM | 0.354 | –
[2], 1000 nM | 0.817 | –
[2], 3000 nM | 0.823 | –
[3], 4.1 nM | 0.761 | –
[3], 12.3 nM | 0.264 | –
[3], 37 nM | 0.282 | –
[3], 111.1 nM | 0.794 | –
[3], 333.3 nM | 0.524 | –
[3], 1000 nM | 1.26 | –
[3], 3000 nM | 0.835 | –
[4], 4.1 nM | 0.595 | –
[4], 12.3 nM | 0.626 | –
[4], 37 nM | 0.661 | –
[4], 111.1 nM | 0.669 | –
[4], 333.3 nM | 0.423 | –
[4], 1000 nM | 0.376 | –
[4], 3000 nM | 0.679 | –
[5], 4.1 nM | 1.49 | –
[5], 12.3 nM | 0.566 | –
[5], 37 nM | 0.415 | –
[5], 111.1 nM | 1.15 | –
[5], 333.3 nM | 0.412 | –
[5], 1000 nM | 0.615 | –
[5], 3000 nM | 1.21 | –
[6], 4.1 nM | 0.374 | –
[6], 12.3 nM | 0.903 | –
[6], 37 nM | 0.419 | –
[6], 111.1 nM | 0.715 | –
[6], 333.3 nM | 0.436 | –
[6], 1000 nM | 0.581 | –
[6], 3000 nM | 1.24 | –
[7], 4.1 nM | 0.402 | –
[7], 12.3 nM | 0.709 | –
[7], 37 nM | 0.475 | –
[7], 111.1 nM | 0.445 | –
[7], 333.3 nM | 0.634 | –
[7], 1000 nM | 0.668 | –
[7], 3000 nM | 0.648 | –
[8], 4.1 nM | – | 0.897
[8], 12.3 nM | – | 1.08
[8], 37 nM | – | 0.956
[8], 111.1 nM | – | 1.12
[8], 333.3 nM | – | 0.967
[8], 1000 nM | – | 1.08
[8], 3000 nM | – | 1.04
[9], 4.1 nM | – | 1.02
[9], 12.3 nM | – | 0.952
[9], 37 nM | – | 0.969
[9], 111.1 nM | – | 0.959
[9], 333.3 nM | – | 1.07
[9], 1000 nM | – | 0.954
[9], 3000 nM | – | 1.09
[10], 4.1 nM | – | 0.944
[10], 12.3 nM | – | 0.918
[10], 37 nM | – | 0.939
[10], 111.1 nM | – | 1.11
[10], 333.3 nM | – | 0.92
[10], 1000 nM | – | 1.28
[10], 3000 nM | – | 0.989
[11], 4.1 nM | – | 0.982
[11], 12.3 nM | – | 1.03
[11], 37 nM | – | 1.01
[11], 111.1 nM | – | 1.08
[11], 333.3 nM | – | 1.07
[11], 1000 nM | – | 1.04
[11], 3000 nM | – | 1.09
[12], 4.1 nM | – | 0.853
[12], 12.3 nM | – | 0.993
[12], 37 nM | – | 0.984
[12], 111.1 nM | – | 0.898
[12], 333.3 nM | – | 1.03
[12], 1000 nM | – | 1.1
[12], 3000 nM | – | 0.976
[13], 4.1 nM | – | 1.09
[13], 12.3 nM | – | 0.954
[13], 37 nM | – | 0.955
[13], 111.1 nM | – | 1.02
[13], 333.3 nM | – | 0.968
[13], 1000 nM | – | 0.988
[13], 3000 nM | – | 1.15
[14], 4.1 nM | – | 1.03
[14], 12.3 nM | – | 0.876
[14], 37 nM | – | 0.962
[14], 111.1 nM | – | 0.95
[14], 333.3 nM | – | 1.01
[14], 1000 nM | – | 0.962
[14], 3000 nM | – | 0.961

NCc1ccccc1CC(=O)N[C@@H]1C(=O)N2C(C(=O)O)=C(CSc3nnnn3CC(=O)O)CS[C@H]12 [Ceforanide]
Details | phenotypic distance | surviving fraction
[1], 4.1 nM | 0.755 | –
[1], 12.3 nM | 0.829 | –
[1], 37 nM | 0.872 | –
[1], 111.1 nM | 0.701 | –
[1], 333.3 nM | 0.858 | –
[1], 1000 nM | 1.54 | –
[1], 3000 nM | 1.07 | –
[2], 4.1 nM | 0.618 | –
[2], 12.3 nM | 0.456 | –
[2], 37 nM | 0.886 | –
[2], 111.1 nM | 0.834 | –
[2], 333.3 nM | 0.882 | –
[2], 1000 nM | 0.522 | –
[2], 3000 nM | 0.877 | –
[3], 4.1 nM | 0.788 | –
[3], 12.3 nM | 0.666 | –
[3], 37 nM | 0.745 | –
[3], 111.1 nM | 0.803 | –
[3], 333.3 nM | 0.916 | –
[3], 1000 nM | 0.851 | –
[3], 3000 nM | 1.28 | –
[4], 4.1 nM | 0.735 | –
[4], 12.3 nM | 0.47 | –
[4], 37 nM | 0.604 | –
[4], 111.1 nM | 0.425 | –
[4], 333.3 nM | 0.594 | –
[4], 1000 nM | 0.792 | –
[4], 3000 nM | 0.948 | –
[5], 4.1 nM | 0.868 | –
[5], 12.3 nM | 0.834 | –
[5], 37 nM | 0.565 | –
[5], 111.1 nM | 2.99 | –
[5], 333.3 nM | 0.49 | –
[5], 1000 nM | 0.481 | –
[5], 3000 nM | 1.06 | –
[6], 4.1 nM | 0.821 | –
[6], 12.3 nM | 0.599 | –
[6], 37 nM | 0.687 | –
[6], 111.1 nM | 0.68 | –
[6], 333.3 nM | 0.855 | –
[6], 1000 nM | 0.963 | –
[6], 3000 nM | 0.779 | –
[7], 4.1 nM | 0.452 | –
[7], 12.3 nM | 0.464 | –
[7], 37 nM | 0.533 | –
[7], 111.1 nM | 0.73 | –
[7], 333.3 nM | 0.545 | –
[7], 1000 nM | 0.643 | –
[7], 3000 nM | 0.896 | –
[8], 4.1 nM | – | 1.01
[8], 12.3 nM | – | 0.94
[8], 37 nM | – | 1.19
[8], 111.1 nM | – | 0.907
[8], 333.3 nM | – | 0.952
[8], 1000 nM | – | 0.963
[8], 3000 nM | – | 0.899
[9], 4.1 nM | – | 1.07
[9], 12.3 nM | – | 1.01
[9], 37 nM | – | 1.2
[9], 111.1 nM | – | 0.873
[9], 333.3 nM | – | 1.1
[9], 1000 nM | – | 0.901
[9], 3000 nM | – | 0.86
[10], 4.1 nM | – | 0.899
[10], 12.3 nM | – | 0.944
[10], 37 nM | – | 0.806
[10], 111.1 nM | – | 1.05
[10], 333.3 nM | – | 0.931
[10], 1000 nM | – | 1.08
[10], 3000 nM | – | 0.785
[11], 4.1 nM | – | 0.871
[11], 12.3 nM | – | 0.985
[11], 37 nM | – | 0.982
[11], 111.1 nM | – | 0.995
[11], 333.3 nM | – | 1
[11], 1000 nM | – | 0.926
[11], 3000 nM | – | 0.897
[12], 4.1 nM | – | 0.857
[12], 12.3 nM | – | 0.899
[12], 37 nM | – | 0.892
[12], 111.1 nM | – | 0.955
[12], 333.3 nM | – | 0.967
[12], 1000 nM | – | 0.991
[12], 3000 nM | – | 0.821
[13], 4.1 nM | – | 0.969
[13], 12.3 nM | – | 0.993
[13], 37 nM | – | 0.944
[13], 111.1 nM | – | 1.06
[13], 333.3 nM | – | 0.801
[13], 1000 nM | – | 0.895
[13], 3000 nM | – | 1.03
[14], 4.1 nM | – | 0.96
[14], 12.3 nM | – | 1
[14], 37 nM | – | 1
[14], 111.1 nM | – | 0.945
[14], 333.3 nM | – | 0.927
[14], 1000 nM | – | 0.94
[14], 3000 nM | – | 0.913
